Consider three compounds from PMC9262865 (Chembiochem, 2022).

Experiment [1] addresses tyrosine phenol-lyase (wild type TPL) (Citrobacter freundii, UniProt P31013). The experiment is described as follows: absorbance titration at […] nm. Format: binding.
The target in experiment [2] is T1, tyrosine phenol-lyase (M379A TPL) (Citrobacter freundii, UniProt P31013, M379A). The experiment is described as follows: X-ray crystal structure. It counts as binding.
The target in experiment [3] is T1, tyrosine phenol-lyase (M379A TPL). As to the kind of experiment: LDH-coupled steady-state kinetics of purified enzyme. It counts as biochemical.

SMILES strings stand for the structures.

In the case of `CSCC[C@H](N)C(=O)O` [L-methionine], the dissociation constant (Kd) – broadly, the concentration at which binding is half-saturated – in experiment [1] is 790 µM; in experiment [2] it was 1740 µM.
Regarding `N[C@@H](Cc1ccc(O)cc1)C(=O)O` [compound 1, L-tyrosine], the “M379A TPL / k cat/K M, M^-1 s^-1” value in experiment [3] is 148 M^-1 s^-1 (kcat/KM).
The same measure, in the same setting: to `N[C@@H](Cc1ccc(O)c(F)c1)C(=O)O` [compound 3, 3-F-L-tyrosine] belongs 774 M^-1 s^-1 (kcat/KM).
